Source: patent publication US8283361B2 (AstraZeneca AB, priority 2008, dated 2012)
Values after ≈ are worked out from the molar mass of the structure shown.

target: S. aureus GyrB ATPase (Staphylococcus aureus, UniProt P0A0K8); assay: biochemical; details: compound at 1 μM; one value per test if tested more than once; read-out: % Inhibition of S. aureus GyrB ATPase
Procedure, shortened: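 IC50 values derive from 10-point titrations of compound (in DMSO). Phosphate formed from 250 μM ATP was quantified by acidic molybdate/malachite green after quenching.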

S. aureus GyrB ATPase, sequence (P0A0K8 whole entry): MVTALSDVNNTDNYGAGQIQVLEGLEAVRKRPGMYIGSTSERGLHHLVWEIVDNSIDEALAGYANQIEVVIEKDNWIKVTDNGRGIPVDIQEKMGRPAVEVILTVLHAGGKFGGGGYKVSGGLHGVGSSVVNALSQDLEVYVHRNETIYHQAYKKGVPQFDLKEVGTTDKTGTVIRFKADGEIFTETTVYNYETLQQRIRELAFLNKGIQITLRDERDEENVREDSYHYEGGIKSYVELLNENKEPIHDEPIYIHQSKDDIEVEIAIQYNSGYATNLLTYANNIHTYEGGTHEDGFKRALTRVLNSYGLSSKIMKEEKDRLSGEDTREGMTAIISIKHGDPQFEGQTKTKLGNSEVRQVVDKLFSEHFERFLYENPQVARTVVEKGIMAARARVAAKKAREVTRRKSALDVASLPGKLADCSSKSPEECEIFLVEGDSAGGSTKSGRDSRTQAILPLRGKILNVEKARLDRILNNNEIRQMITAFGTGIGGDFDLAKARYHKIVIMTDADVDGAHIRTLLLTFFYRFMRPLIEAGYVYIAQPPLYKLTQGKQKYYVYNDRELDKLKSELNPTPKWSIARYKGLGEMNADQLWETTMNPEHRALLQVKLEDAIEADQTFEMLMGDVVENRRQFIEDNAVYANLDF
S. aureus GyrB ATPase, sequence (P0AES4 whole entry, further chain): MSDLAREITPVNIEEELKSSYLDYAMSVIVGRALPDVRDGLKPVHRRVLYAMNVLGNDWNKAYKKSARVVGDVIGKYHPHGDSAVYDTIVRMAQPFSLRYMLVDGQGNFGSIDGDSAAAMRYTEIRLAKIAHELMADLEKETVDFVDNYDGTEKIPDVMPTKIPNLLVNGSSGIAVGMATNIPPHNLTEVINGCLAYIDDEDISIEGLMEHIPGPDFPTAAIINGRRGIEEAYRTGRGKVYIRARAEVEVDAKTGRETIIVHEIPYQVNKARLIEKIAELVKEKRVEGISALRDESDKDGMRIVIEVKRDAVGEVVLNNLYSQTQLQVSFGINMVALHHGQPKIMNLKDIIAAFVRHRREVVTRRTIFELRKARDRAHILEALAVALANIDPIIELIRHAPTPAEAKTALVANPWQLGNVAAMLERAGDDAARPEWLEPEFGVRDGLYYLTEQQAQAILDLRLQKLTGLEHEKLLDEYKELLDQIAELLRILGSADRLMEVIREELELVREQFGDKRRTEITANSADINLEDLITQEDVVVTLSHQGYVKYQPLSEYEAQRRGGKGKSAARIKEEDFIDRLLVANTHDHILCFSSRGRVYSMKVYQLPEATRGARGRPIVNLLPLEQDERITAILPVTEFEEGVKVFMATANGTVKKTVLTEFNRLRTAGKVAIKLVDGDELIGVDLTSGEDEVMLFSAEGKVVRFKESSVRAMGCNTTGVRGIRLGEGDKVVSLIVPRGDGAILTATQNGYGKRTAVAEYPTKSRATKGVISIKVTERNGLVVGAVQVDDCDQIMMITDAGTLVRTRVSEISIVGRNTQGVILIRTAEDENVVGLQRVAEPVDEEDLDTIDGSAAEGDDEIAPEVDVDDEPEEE

SMILES	inhibition at 1 µM [%]
CCNC(=O)Nc1cc(-c2nc(C(F)(F)F)cs2)c(-c2ccc3c(=O)c(C(=O)O)cn(CC)c3c2)cn1 [Example 9, 1-ethyl-7-(6-(3-ethylureido)-4-(4-trifluoromethylthiazol-2-yl)pyridin-3-yl)-4-oxo-1,4-dihydroquinoline-3-carboxylic acid]	106
CCNC(=O)Nc1cc(-c2nc(C(F)(F)F)cs2)c(-c2ccc3c(=O)c(C(=O)NCCCO)cn(Cc4cccnc4)c3c2)cn1 [Example 359, 7-{6-[(ethylcarbamoyl)amino]-4-[4-(trifluoromethyl)-1,3-thiazol-2-yl]pyridin-3-yl}-N-(3-hydroxypropyl)-4-oxo-1-(pyridin-3-ylmethyl)-1,4-dihydroquinoline-3-carboxamide]	92
CCNC(=O)Nc1cc(-c2nc(C(F)(F)F)cs2)c(-c2ccc3c(=O)c(C(=O)NCCN4CCOCC4)cn(Cc4cccnc4)c3c2)cn1 [Example 361, 7-{6-[(ethylcarbamoyl)amino]-4-[4-(trifluoromethyl)-1,3-thiazol-2-yl]pyridin-3-yl}-N-[2-(morpholin-4-yl)ethyl]-4-oxo-1-(pyridin-3-ylmethyl)-1,4-dihydroquinoline-3-carboxamide]	97
CCNC(=O)Nc1cc(-c2nc(C(F)(F)F)cs2)c(-c2ccc3c(=O)c(C(=O)NCCN4CCN(C)CC4)cn(Cc4cccnc4)c3c2)cn1 [Example 362, 7-{6-[(ethylcarbamoyl)amino]-4-[4-(trifluoromethyl)-1,3-thiazol-2-yl]pyridin-3-yl}-N-[2-(4-methylpiperazin-1-yl)ethyl]-4-oxo-1-(pyridin-3-ylmethyl)-1,4-dihydroquinoline-3-carboxamide]	94
CCNC(=O)Nc1cc(-c2nc(C(F)(F)F)cs2)c(-c2ccc3c(=O)c(C(=O)NC)cn(CCO)c3c2)cn1 [Example 363, 7-{6-[(Ethylcarbamoyl)amino]-4-[4-(trifluoromethyl)-1,3-thiazol-2-yl]pyridin-3-yl}-1-(2-hydroxyethyl)-N-methyl-4-oxo-1,4-dihydroquinoline-3-carboxamide]	95
CCNC(=O)Nc1cc(-c2nc(C(F)(F)F)cs2)c(-c2ccc3c(=O)c(C(=O)NCCO)cn(CCO)c3c2)cn1 [Example 364, 7-{6-[(Ethylcarbamoyl)amino]-4-[4-(trifluoromethyl)-1,3-thiazol-2-yl]pyridin-3-yl}-N,1-bis(2-hydroxyethyl)-4-oxo-1,4-dihydroquinoline-3-carboxamide]	97
CCNC(=O)Nc1cc(-c2nc(C(F)(F)F)cs2)c(-c2ccc3c(=O)c(C(=O)NCCCO)cn(CCO)c3c2)cn1 [Example 365, 7-{6-[(ethylcarbamoyl)amino]-4-[4-(trifluoromethyl)-1,3-thiazol-2-yl]pyridin-3-yl}-1-(2-hydroxyethyl)-N-(3-hydroxypropyl)-4-oxo-1,4-dihydroquinoline-3-carboxamide]	99
CCNC(=O)Nc1cc(-c2nc(C(F)(F)F)cs2)c(-c2ccc3c(=O)c(C(=O)NCCN(C)C)cn(CCO)c3c2)cn1 [Example 366, N-[2-(dimethylamino)ethyl]-7-{6-[(ethylcarbamoyl)amino]-4-[4-(trifluoromethyl)-1,3-thiazol-2-yl]pyridin-3-yl}-1-(2-hydroxyethyl)-4-oxo-1,4-dihydroquinoline-3-carboxamide]	99
CCNC(=O)Nc1cc(-c2nc(C(F)(F)F)cs2)c(-c2ccc3c(=O)c(C(=O)NCCN4CCOCC4)cn(CCO)c3c2)cn1 [Example 367, 7-{6-[(ethylcarbamoyl)amino]-4-[4-(trifluoromethyl)-1,3-thiazol-2-yl]pyridin-3-yl}-1-(2-hydroxyethyl)-N-[2-(morpholin-4-yl)ethyl]-4-oxo-1,4-dihydroquinoline-3-carboxamide]	100
CCNC(=O)Nc1cc(-c2nc(C(F)(F)F)cs2)c(-c2ccc3c(=O)c(C(=O)NCCN4CCN(C)CC4)cn(CCO)c3c2)cn1 [Example 368, 7-{6-[(Ethylcarbamoyl)amino]-4-[4-(trifluoromethyl)-1,3-thiazol-2-yl]pyridin-3-yl}-1-(2-hydroxyethyl)-N-[2-(4-methylpiperazin-1-yl)ethyl]-4-oxo-1,4-dihydroquinoline-3-carboxamide]	87
CCNC(=O)Nc1cc(-c2nc(C(F)(F)F)cs2)c(-c2ccc3c(=O)c(C(=O)NC)cn(CCOC)c3c2)cn1 [Example 369, 7-{6-[(Ethylcarbamoyl)amino]-4-[4-(trifluoromethyl)-1,3-thiazol-2-yl]pyridin-3-yl}-1-(2-methoxyethyl)-N-methyl-4-oxo-1,4-dihydroquinoline-3-carboxamide]	97
CCNC(=O)Nc1cc(-c2nc(C(F)(F)F)cs2)c(-c2ccc3c(=O)c(C(=O)NCCO)cn(CCOC)c3c2)cn1 [Example 370, 7-{6-[(Ethylcarbamoyl)amino]-4-[4-(trifluoromethyl)-1,3-thiazol-2-yl]pyridin-3-yl}-N-(2-hydroxyethyl)-1-(2-methoxyethyl)-4-oxo-1,4-dihydroquinoline-3-carboxamide]	98
CCNC(=O)Nc1cc(-c2nc(C(F)(F)F)cs2)c(-c2ccc3c(=O)c(C(=O)NCCCO)cn(CCOC)c3c2)cn1 [Example 371, 7-{6-[(Ethylcarbamoyl)amino]-4-[4-(trifluoromethyl)-1,3-thiazol-2-yl]pyridin-3-yl}-N-(3-hydroxypropyl)-1-(2-methoxyethyl)-4-oxo-1,4-dihydroquinoline-3-carboxamide]	98
CCNC(=O)Nc1cc(-c2nc(C(F)(F)F)cs2)c(-c2ccc3c(=O)c(C(=O)NCCN(C)C)cn(CCOC)c3c2)cn1 [Example 372, N-[2-(dimethylamino)ethyl]-7-{6-[(ethylcarbamoyl)amino]-4-[4-(trifluoromethyl)-1,3-thiazol-2-yl]pyridin-3-yl}-1-(2-methoxyethyl)-4-oxo-1,4-dihydroquinoline-3-carboxamide]	98
CCNC(=O)Nc1cc(-c2nc(C(F)(F)F)cs2)c(-c2ccc3c(=O)c(C(=O)NCCN4CCN(C)CC4)cn(CCOC)c3c2)cn1 [Example 373, 7-{6-[(Ethylcarbamoyl)amino]-4-[4-(trifluoromethyl)-1,3-thiazol-2-yl]pyridin-3-yl}-1-(2-methoxyethyl)-N-[2-(4-methylpiperazin-1-yl)ethyl]-4-oxo-1,4-dihydroquinoline-3-carboxamide]	94
CCNC(=O)Nc1cc(-c2nc(C(F)(F)F)cs2)c(-c2ccc3c(=O)c(C(=O)NC)cn(CC4CC4)c3c2)cn1 [Example 374, 1-(Cyclopropylmethyl)-7-{6-[(ethylcarbamoyl)amino]-4-[4-(trifluoromethyl)-1,3-thiazol-2-yl]pyridin-3-yl}-N-methyl-4-oxo-1,4-dihydroquinoline-3-carboxamide]	86
CCNC(=O)Nc1cc(-c2nc(C(F)(F)F)cs2)c(-c2ccc3c(=O)c(C(=O)NCCO)cn(CC4CC4)c3c2)cn1 [Example 375, 1-(Cyclopropylmethyl)-7-{6-[(ethylcarbamoyl)amino]-4-[4-(trifluoromethyl)-1,3-thiazol-2-yl]pyridin-3-yl}-N-(2-hydroxyethyl)-4-oxo-1,4-dihydroquinoline-3-carboxamide]	99
CCNC(=O)Nc1cc(-c2nc(C(F)(F)F)cs2)c(-c2ccc3c(=O)c(C(=O)NCCCO)cn(CC4CC4)c3c2)cn1 [Example 376, 1-(Cyclopropylmethyl)-7-{6-[(ethylcarbamoyl)amino]-4-[4-(trifluoromethyl)-1,3-thiazol-2-yl]pyridin-3-yl}-N-(3-hydroxypropyl)-4-oxo-1,4-dihydroquinoline-3-carboxamide]	108
CCNC(=O)Nc1cc(-c2nc(C(F)(F)F)cs2)c(-c2ccc3c(=O)c(C(=O)NCCN(C)C)cn(CC4CC4)c3c2)cn1 [Example 377, 1-(Cyclopropylmethyl)-N-[2-(dimethylamino)ethyl]-7-{6-[(ethylcarbamoyl)amino]-4-[4-(trifluoromethyl)-1,3-thiazol-2-yl]pyridin-3-yl}-4-oxo-1,4-dihydroquinoline-3-carboxamide]	106
CCNC(=O)Nc1cc(-c2nc(C(F)(F)F)cs2)c(-c2ccc3c(=O)c(C(=O)NCCN4CCOCC4)cn(CC4CC4)c3c2)cn1 [Example 378, 1-(Cyclopropylmethyl)-7-{6-[(ethylcarbamoyl)amino]-4-[4-(trifluoromethyl)-1,3-thiazol-2-yl]pyridin-3-yl}-N-[2-(morpholin-4-yl)ethyl]-4-oxo-1,4-dihydroquinoline-3-carboxamide]	107
CCNC(=O)Nc1cc(-c2nc(C(F)(F)F)cs2)c(-c2ccc3c(=O)c(C(=O)NCCN4CCN(C)CC4)cn(CC4CC4)c3c2)cn1 [Example 379, 1-(Cyclopropylmethyl)-7-{6-[(ethylcarbamoyl)amino]-4-[4-(trifluoromethyl)-1,3-thiazol-2-yl]pyridin-3-yl}-N-[2-(4-methylpiperazin-1-yl)ethyl]-4-oxo-1,4-dihydroquinoline-3-carboxamide]	97

system: Streptococcus pneumoniae; assay: Bacterial susceptibility testing in liquid media (MIC); type: cell-based; details: against Streptococcus pneumoniae; lowest concentration reducing growth by 80% or more
Description: Compounds may be tested for antimicrobial activity by susceptibility testing in liquid media. Compounds may be dissolved in dimethylsulfoxide and tested in 10 doubling dilutions in the susceptibility assays. The organisms used in the assay may be grown overnight on suitable agar media and then suspended in a liquid medium appropriate for the growth of the organism. The suspension can be a 0.5 McFarland and a further 1 in 10 dilution can be made into the same liquid medium to prepare the final organism suspension in 100 μL. Plates can be incubated under appropriate conditions at 37° C. for 24 hrs prior to reading. The Minimum Inhibitory Concentration (MIC) may be determined as the lowest drug concentration able to reduce growth by 80% or more.

SMILES	MIC [µM]
CCNC(=O)Nc1cc(-c2nc(C(F)(F)F)cs2)c(-c2ccc3c(=O)c(C(=O)O)cn(CC)c3c2)cn1 [Example 9, 1-ethyl-7-(6-(3-ethylureido)-4-(4-trifluoromethylthiazol-2-yl)pyridin-3-yl)-4-oxo-1,4-dihydroquinoline-3-carboxylic acid]	0.02 (≈ 0.0106 µg/mL)
